The source of these data is patent US10077261B2, “Imidazolin-5-one derivative useful as FASN inhibitors for the treatment of cancer” (Janssen Pharmaceutica NV, priority 2012, dated 2018).

In test [1] the test system is A2780 ovarian cells. Briefly: A2780 ovarian cell proliferation assay in lipid reduced medium, without palmitate (MTT). Conditions: Homo sapiens, A2780, 96 h; read-out: pIC50 A2780 Ovarian Cell, Without Palmitate (converted). It is filed as cell-based. The procedure: (§1) The biological assays described below correspond to comparative assays for ovarian cell proliferation. […] Compounds active in the absence of palmitate would not be expected to be active in the control.
(§2) 2500 cells were seeded in a 96-well clear well plate in 200 μL RPMI1640 with 10% Fetal Calf Serum (Hyclone), and incubated at 37° C., 5% CO2. Blanks were wells without cells. The next day the culture medium was aspirated and replaced by 160 μL culture medium with 10% Lipid-Reduced Serum (LRS, Hyclone). 20 μL test compound (at concentrations of 30 μM, 10 μM, 3 μM, 1 μM, 0.30 μM, 0.10 μM, 0.03 μM and 0.01 μM)/DMSO dilution followed by 20 μL ethanol-BSA solution were added to a final concentrations of 0.2% DMSO, 0.2% fatty-acid-free BSA, 0.25% ethanol. After 96 h incubation an MTT assay was performed. The absorbance was measured at 544 nm on a SPECTRAMAX brand microplate reader (Molecular Devices).
where mLC and mHC were the means of the low control wells and high control wells on the plate, after manual exclusion of outliers. A plot of Controlmin versus test compound concentration was fitted to a 4-parameter logistic curve using a non-linear least squares regression method.
(§3) Representative compounds of the present invention were tested according to the procedure as described in Biological Example 3 above, with results as listed in Table 8, below.

Test [2] has as its system A2780 ovarian cells. As to the kind of experiment: A2780 ovarian cell proliferation assay in lipid reduced medium, with palmitate (MTT). In kind it is cell-based. The conditions noted are these: Homo sapiens, A2780, 96 h; read-out: pIC50 A2780 Ovarian Cell, With Palmitate (converted). As to the method:
as §1
as §2, with “palmitate-BSA” for “ethanol-BSA”, “DMSO, 25 μM palmitate (Sigma, P0500, 10 mM stock solution in ethanol)” for “DMSO,”, “incubation,” for “incubation”
A best fit curve was fitted by a minimum sum of squares method, plotting Controlmin versus test compound concentration.
as §3

Test [3] has as its target T1, hFASN enzyme (full length) (Homo sapiens, UniProt P49327).
T1 construct: 10 μL hFASN enzyme (full length, 300 ng, purified in house); made in house
As to the kind of experiment: Fatty Acid Synthase (FASN) inhibition scintillation proximity assay. The conditions noted are these: for inhibition at 10 µM: read-out: Human FASN % inhibition @ 10 μM, 10 μM test compound; for IC50: read-out: Human FASN pIC50 (converted). It is filed as biochemical. The method, boiled down:
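Full-length in-house purified enzyme (300 ng) was tested in 100 mM KH2PO4 pH 7.5, 1 mM DTT with ³H-acetyl-CoA and malonyl-CoA as substrates; compounds ranged 0.01–30 μM. Reactions were stopped with streptavidin imaging beads, read by LEADseeker at 610 nm, and fitted to a 4-parameter logistic curve.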
For orientation: Scintillation proximity formats need no separation of bound from free tracer.

T1 sequence (P49327 whole entry): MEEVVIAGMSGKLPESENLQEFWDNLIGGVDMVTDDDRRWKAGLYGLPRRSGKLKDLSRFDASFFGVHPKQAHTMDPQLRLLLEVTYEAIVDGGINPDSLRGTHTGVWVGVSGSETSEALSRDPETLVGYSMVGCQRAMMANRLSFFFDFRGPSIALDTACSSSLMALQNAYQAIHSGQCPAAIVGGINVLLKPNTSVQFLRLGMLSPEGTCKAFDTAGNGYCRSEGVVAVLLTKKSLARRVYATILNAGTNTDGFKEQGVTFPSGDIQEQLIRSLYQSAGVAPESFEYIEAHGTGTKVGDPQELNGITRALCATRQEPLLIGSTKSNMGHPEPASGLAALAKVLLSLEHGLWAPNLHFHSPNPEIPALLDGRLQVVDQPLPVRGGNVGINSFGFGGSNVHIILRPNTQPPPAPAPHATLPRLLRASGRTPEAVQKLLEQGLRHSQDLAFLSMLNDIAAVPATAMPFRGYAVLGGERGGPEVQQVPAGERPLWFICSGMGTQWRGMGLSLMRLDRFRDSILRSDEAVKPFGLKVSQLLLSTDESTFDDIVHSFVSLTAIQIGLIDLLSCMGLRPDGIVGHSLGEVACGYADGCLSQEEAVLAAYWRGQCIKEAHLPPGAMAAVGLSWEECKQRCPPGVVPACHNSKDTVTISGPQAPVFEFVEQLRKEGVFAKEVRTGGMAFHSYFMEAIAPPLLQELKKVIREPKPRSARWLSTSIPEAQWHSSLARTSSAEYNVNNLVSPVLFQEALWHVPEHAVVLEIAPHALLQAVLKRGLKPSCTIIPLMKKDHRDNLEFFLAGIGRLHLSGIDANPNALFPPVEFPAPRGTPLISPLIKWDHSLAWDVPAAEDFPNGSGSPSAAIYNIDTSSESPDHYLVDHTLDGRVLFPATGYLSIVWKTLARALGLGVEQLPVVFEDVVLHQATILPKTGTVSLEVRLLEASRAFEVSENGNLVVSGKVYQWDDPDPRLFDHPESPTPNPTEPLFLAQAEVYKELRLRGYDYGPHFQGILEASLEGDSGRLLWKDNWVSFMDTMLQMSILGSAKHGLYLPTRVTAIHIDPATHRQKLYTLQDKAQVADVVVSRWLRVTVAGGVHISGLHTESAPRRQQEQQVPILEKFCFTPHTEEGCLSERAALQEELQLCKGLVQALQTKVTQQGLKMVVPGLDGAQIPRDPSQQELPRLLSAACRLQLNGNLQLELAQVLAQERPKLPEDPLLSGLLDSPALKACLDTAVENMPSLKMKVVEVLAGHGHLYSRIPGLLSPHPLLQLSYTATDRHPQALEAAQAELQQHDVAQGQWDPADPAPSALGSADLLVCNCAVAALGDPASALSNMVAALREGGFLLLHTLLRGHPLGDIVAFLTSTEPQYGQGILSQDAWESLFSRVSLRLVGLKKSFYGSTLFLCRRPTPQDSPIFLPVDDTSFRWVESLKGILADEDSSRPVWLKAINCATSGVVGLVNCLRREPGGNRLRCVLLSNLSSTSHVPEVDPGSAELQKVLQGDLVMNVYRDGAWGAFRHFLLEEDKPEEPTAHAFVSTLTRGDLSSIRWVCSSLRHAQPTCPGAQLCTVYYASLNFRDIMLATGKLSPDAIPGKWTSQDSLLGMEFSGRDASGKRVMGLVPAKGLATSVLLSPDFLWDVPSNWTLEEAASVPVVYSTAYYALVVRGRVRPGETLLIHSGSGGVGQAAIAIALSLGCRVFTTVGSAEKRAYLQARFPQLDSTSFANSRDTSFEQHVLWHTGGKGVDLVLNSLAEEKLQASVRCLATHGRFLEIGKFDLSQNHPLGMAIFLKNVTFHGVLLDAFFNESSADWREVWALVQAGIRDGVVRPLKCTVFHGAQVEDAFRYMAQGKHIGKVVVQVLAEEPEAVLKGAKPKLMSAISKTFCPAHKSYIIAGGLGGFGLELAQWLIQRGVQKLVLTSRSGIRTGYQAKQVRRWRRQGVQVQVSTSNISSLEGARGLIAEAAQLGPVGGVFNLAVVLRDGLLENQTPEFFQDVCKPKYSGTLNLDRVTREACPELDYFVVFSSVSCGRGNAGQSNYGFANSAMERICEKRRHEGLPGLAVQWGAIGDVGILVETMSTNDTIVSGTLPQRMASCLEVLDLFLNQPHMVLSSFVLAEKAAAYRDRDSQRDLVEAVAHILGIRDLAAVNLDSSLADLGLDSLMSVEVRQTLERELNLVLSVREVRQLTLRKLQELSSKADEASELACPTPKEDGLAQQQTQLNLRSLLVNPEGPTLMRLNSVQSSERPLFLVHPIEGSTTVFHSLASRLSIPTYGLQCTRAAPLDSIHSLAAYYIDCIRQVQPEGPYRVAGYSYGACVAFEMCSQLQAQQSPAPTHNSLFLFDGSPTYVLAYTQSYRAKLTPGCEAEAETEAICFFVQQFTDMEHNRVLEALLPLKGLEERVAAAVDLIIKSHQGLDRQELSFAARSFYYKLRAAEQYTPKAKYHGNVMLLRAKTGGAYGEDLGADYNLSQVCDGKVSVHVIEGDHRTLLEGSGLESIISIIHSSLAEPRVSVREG

Regarding `CC1(C(=O)N2CC[C@@H](CN3C(=O)C4(CCCC4)N=C3c3ccc(-c4ccc5occc5c4)cc3)C2)CC1` [compound 116, (R)-2-(4-(Benzofuran-5-yl)phenyl)-3-((1-(1-methylcyclopropanecarbonyl)pyrrolidin-3-yl)methyl)-1,3-diazaspiro[4.4]non-1-en-4-one], the IC50 is 35.5 nM with A2780 ovarian cells [1], approximately 3020 nM in the test on A2780 ovarian cells [2] and 28.2 nM in test [3]. Besides, in test [3], the inhibition (commonly the change of the read-out against control, counted positive when it falls) at 10 µM was determined as 121%.

For the compound `O=C(N1CCCC1)N1CC[C@@H](CN2C(=O)C3(CCCC3)N=C2c2ccc(-c3ccc4occc4c3)cc2)C1` [compound 117, 2-[4-(1-Benzofuran-5-yl)phenyl]-3-{[(3S)-1-(pyrrolidin-1-ylcarbonyl)pyrrolidin-3-yl]methyl}-1,3-diazaspiro[4.4]non-1-en-4-one], the IC50 in the test on A2780 ovarian cells [1] is approximately 2400 nM; with A2780 ovarian cells [2], 9120 nM; in test [3], 204 nM. For the same compound, the inhibition at 10 µM in test [3] amounted to 108%.

Regarding `Cn1ccc(C(=O)N2CC[C@@H](CN3C(=O)C4(CCCC4)N=C3c3ccc(-c4ccc5occc5c4)cc3)C2)n1` [compound 118, 2-[4-(1-Benzofuran-5-yl)phenyl]-3-({(3R)-1-[(1-methyl-1H-pyrazol-3-yl)carbonyl]pyrrolidin-3-yl}methyl)-1,3-diazaspiro[4.4]non-1-en-4-one], the IC50 with A2780 ovarian cells [1] is 1660 nM; in the test on A2780 ovarian cells [2], more than 10000 nM; in test [3], 355 nM. Also, the inhibition at 10 µM in test [3] turned out to be 101%.

Consider `O=C(CC(F)(F)F)N1CC[C@@H](CN2C(=O)C3(CCCC3)N=C2c2ccc(-c3ccc4occc4c3)cc2)C1` [compound 119, 2-[4-(1-Benzofuran-5-yl)phenyl]-3-{[(3R)-1-(3,3,3-trifluoropropanoyl)pyrrolidin-3-yl]methyl}-1,3-diazaspiro[4.4]non-1-en-4-one], for which the IC50 in the test with A2780 ovarian cells [1] was approximately 2240 nM; with A2780 ovarian cells [2], 11000 nM; in test [3] it was 174 nM. Further, the inhibition at 10 µM in test [3] worked out at 107%.

For `O=C(C1CC1)N1CC[C@@H](CN2C(=O)C3(CCCC3)N=C2c2ccc(-c3ccc4occc4c3)cc2F)C1` [compound 120, 2-[4-(1-Benzofuran-5-yl)-2-fluorophenyl]-3-{[(3R)-1-(cyclopropylcarbonyl)pyrrolidin-3-yl]methyl}-1,3-diazaspiro[4.4]non-1-en-4-one], the IC50 in the test with A2780 ovarian cells [1] was approximately 759 nM; in the test on A2780 ovarian cells [2] it was 5010 nM; in test [3], 38.9 nM. Besides, the inhibition at 10 µM in test [3] came to 116%.

In the case of `O=C(C1CC1)N1CC[C@@H](CN2C(=O)C3(CCCC3)N=C2c2ccc(-c3ccc(Cl)cc3)cc2F)C1` [compound 121, 2-(4′-Chloro-3-fluorobiphenyl-4-yl)-3-{[(3R)-1-(cyclopropylcarbonyl)pyrrolidin-3-yl]methyl}-1,3-diazaspiro[4.4]non-1-en-4-one], the results for the IC50 (in the test with A2780 ovarian cells [1]; in the test with A2780 ovarian cells [2]; in test [3]) were 2190 nM, more than 10000 nM and 91.2 nM, respectively. Further, in test [3], the inhibition at 10 µM came out at 115%.

Regarding `O=C(C1CC1)N1CC[C@@H](CN2C(=O)C3(CC3)N=C2c2ccc(-c3ccc(-c4cccnc4)cc3)cc2)C1` [compound 122, 6-{[(3R)-1-(Cyclopropylcarbonyl)pyrrolidin-3-yl]methyl}-5-(4′-pyridin-3-ylbiphenyl-4-yl)-4,6-diazaspiro[2.4]hept-4-en-7-one], the IC50 is 234 nM in the test on A2780 ovarian cells [1], approximately 10000 nM with A2780 ovarian cells [2] and 123 nM in test [3]. The inhibition at 10 µM in test [3] was found to be 112%.

With `CN(C)c1ccc(-c2ccc(C3=NC4(CC4)C(=O)N3C[C@@H]3CCN(C(=O)C4CC4)C3)cc2)cc1` [compound 124, 6-{[(3R)-1-(Cyclopropylcarbonyl)pyrrolidin-3-yl]methyl}-5-[4′-(dimethylamino)biphenyl-4-yl]-4,6-diazaspiro[2.4]hept-4-en-7-one], the results for the IC50 in the test on A2780 ovarian cells [1] and in the test on A2780 ovarian cells [2] were approximately 288 nM and more than 10000 nM, respectively. Also, in test [3], the inhibition at 10 µM worked out at 113%.
